Patent US20030032639A1, “Composition and method for reducing adverse interactions between phenothiazine derivatives and plasma using surfactants and amino acids” (Wyeth, priority 2001, published 2003)

Columns and labels:
[1] = promethazine hydrochloride preparation mixed with plasma in vitro, relative amount of precipitate formed; format: physicochemical; conditions: laboratory studies, ratio not stated
From the text: Without being bound by any particular theory, it is believed that this precipitate formation could be related to the venous thrombosis found at the injection site, as well as the cause of other local adverse reactions involving promethazine injection. […] With a composition according to one or more of the embodiments set forth herein, it is expected that a promethazine solution given by the routes of i.v. and i.m. (intramuscular) injection would have fewer incidences of irritation and other adverse reactions at the site of injection.

[2] = after intramuscular injection; cited from earlier work
[3] = cited from earlier work

CC(CN1c2ccccc2Sc2ccccc21)N(C)C.Cl (racemic) [promethazine hydrochloride, 10H-Phenothiazine-10-ethanamine, N,N, α-trimethyl-, monohydrochloride, (±)]
precipitate formation when solution is mixed with plasma [1]: precipitates form immediately
plasma creatine kinase levels (indication of muscle irritation) [2]: raise plasma creatine kinase levels
adverse reactions at the local area of injection ([3]; clinical case reports): irritation and other serious adverse reactions at the local area of injection, particularly gangrene at the extremity of the injection site
venous thrombosis at the injection site ([3]; in vivo, iv): some incidents of venous thrombosis at the injection site
